For data set [1], the system named is stable HCV 1b RLuc replicon cells (genotype 1b Con1 replicon). The data set is described as follows: HCV genotype 1b RLuc replicon reporter assay. The class given is cell-based. As to conditions: Hepatitis C virus; stable genotype 1b Con1 RLuc replicon cells, 72 hours. Summed up:
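EC50 derived by non-linear regression of Renilla luciferase signal measured in lysates 72 h after adding 3-fold serial compound dilutions. Replicons: stable genotype 1b Con1 cells; transient Huh-Lunet transfections of NS5A chimeras—4a ED43 or 3a S52 in Con1, 2b MD2b-1 (M31) in JFH-1.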
A general note: In antiviral work, replicon cells carry a viral genome segment that copies itself.

In data set [2] the test system is NS5A chimeric genotype 2a JFH-1 replicon with genotype 2b MD2b-1 strain NS5A gene (M31). Kind of data set: HCV genotype 2b NS5A chimeric replicon assay, stable (s). As to conditions: Hepatitis C virus, 72 h, read-out: 2b (s) (nM). The data set is classed as cell-based.
A short description of data set [3]: IV and PO single dose pharmacokinetic studies in SD rats. The data set is classed as in vivo. The conditions noted are these: Sprague-Dawley, rat, plasma, male SD rats, IV infusion 1 mg/kg, oral gavage 2 mg/kg, read-out: Rat % F. In short, it runs like this:
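Fasted male Sprague-Dawley rats (n=3/group) dosed IV by 30-min jugular infusion at 1 mg/kg or by oral gavage at 2 mg/kg, in ethanol/PEG 400 vehicles at pH 2.0–2.2. Serial plasma to 24 h quantified by LC/MS/MS (SRM); non-compartmental analysis, linear-trapezoidal AUC, %F as oral vs IV AUC.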

Data set [4] relates to L31V/Y93H in genotype 1b NS5A replicon. Kind of data set: Resistance mutant replicon assay, genotype 1b NS5A L31V/Y93H. The class given is cell-based, HCV. As to conditions: Hepatitis C virus, read-out: 1b L31V/Y93H (nM). In short, it runs like this:
(§1)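 Cured-51 cells transfected with mutant Pi-RLuc replicon RNA; 72 h compound; lysis, Renilla luciferase; EC50 by non-linear regression.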

For data set [5], the system named is Y93N in genotype 1a NS5A replicon. Kind of data set: Resistance mutant replicon assay, genotype 1a NS5A Y93N. As to conditions: Hepatitis C virus, read-out: 1a Y93N (nM). The data set is classed as cell-based, HCV. In short, it runs like this:
as §1

Data set [6] deals with Y93H in genotype 3a NS5A replicon. Kind of data set: Resistance mutant replicon assay, genotype 3a NS5A Y93H. The class given is cell-based, HCV. As to conditions: Hepatitis C virus, read-out: 3a Y93H (nM). In short, it runs like this: as §1

As to `COC(=O)N[C@H](C(=O)N1[C@@H](C)CC[C@H]1c1ncc(-c2ccc3c(c2)COc2cc4c(ccc5nc([C@@H]6CC[C@H](C)N6C(=O)[C@@H](NC(=O)OC)C6CC(C)O[C@H](C)C6)[nH]c54)cc2-3)[nH]1)C(C)C` (stereo in doubt) [Example AQ, Methyl {(2S)-1-[(2S,5S)-2-(5-{2-[(2S,5S)-1-{(2S)-2-[(2R,6R)-2,6-dimethyltetrahydro-2H-pyran-4-yl]-2-[(methoxycarbonyl)amino]acetyl}-5-methylpyrrolidin-2-yl]-1,11-dihydroisochromeno[4′,3′:6,7]naphtho[1,2-d]imidazol-9-yl}-1H-imidazol-2-yl)-5-methylpyrrolidin-1-yl]-3-methyl-1-oxobutan-2-yl}carbamate], the EC50 was 0.029 nM in data set [1]; 0.032 nM in data set [2]; 0.908 nM in data set [4]; 0.337 nM in data set [5]; 0.703 nM in data set [6]. Also, the bioavailability in data set [3] stood at 22.9%.
For the molecule `CC[C@H]1CC[C@@H](c2nc3ccc4cc5c(cc4c3[nH]2)OCc2cc(-c3cnc([C@@H]4CC[C@H](C)N4C(=O)[C@@H](NC(=O)OC)C(C)C)[nH]3)ccc2-5)N1C(=O)[C@@H](NC(=O)OC)C1CCOCC1` [Comp 3, reference compound], the EC50 is 0.026 nM in data set [1], 0.095 nM in data set [2] and 14.1 nM in data set [6]. Also, the bioavailability in data set [3] stood at 46.6%.
With `CC[C@H](C)[C@H](NC(=O)OC)C(=O)N1[C@@H](C)CC[C@H]1c1ncc(-c2ccc3c(c2)COc2cc4c(ccc5nc([C@@H]6CC[C@H](C)N6C(=O)[C@@H](NC(=O)OC)C6CCOCC6)[nH]c54)cc2-3)[nH]1` [Comp 4, reference compound], the EC50 in data set [1] was determined as 0.028 nM; in data set [2], 0.074 nM; in data set [5], 1.06 nM; in data set [6], 0.695 nM. Moreover, in data set [3], the bioavailability amounted to 22.1%.
`CC[C@H](C)[C@H](NC(=O)OC)C(=O)N1[C@@H](C)CC[C@H]1c1nc2ccc3cc4c(cc3c2[nH]1)OCc1cc(-c2cnc([C@@H]3CC[C@H](C)N3C(=O)[C@@H](NC(=O)OC)C3CCOCC3)[nH]2)ccc1-4` [Comp 12, reference compound]: the EC50 turned out to be 0.022 nM in data set [1]; 0.07 nM in data set [2]; 0.097 nM in data set [4]; 1.38 nM in data set [5]; 17.7 nM in data set [6]. Besides, in data set [3], the bioavailability was 5.64%.
Turning to `CC[C@H](C)[C@H](NC(=O)OC)C(=O)N1[C@@H](C)CC[C@H]1c1ncc(-c2ccc3c(c2)COc2cc4c(ccc5nc([C@@H]6CC[C@H](C)N6C(=O)[C@@H](NC(=O)OC)C6C[C@@H](C)O[C@H](C)C6)[nH]c54)cc2-3)[nH]1` (stereo partly drawn) [Example AA, Methyl {(2S,3S)-1-[(2S,5S)-2-(5-{2-[(2S,5S)-1-{(2S)-2-[(2R,6R)-2,6-dimethyltetrahydro-2H-pyran-4-yl]-2-[(methoxycarbonyl)amino]acetyl}-5-methylpyrrolidin-2-yl]-1,11-dihydroisochromeno[4′,3′:6,7]naphtho[1,2-d]imidazol-9-yl}-1H-imidazol-2-yl)-5-methylpyrrolidin-1-yl]-3-methyl-1-oxopentan-2-yl}carbamate], the EC50 in data set [1] amounted to 0.017 nM; in data set [2] it was 0.029 nM; in data set [4], 0.498 nM; in data set [5], 0.57 nM; in data set [6], 0.544 nM. The bioavailability in data set [3] worked out at 28.1%.
Take `COC(=O)N[C@H](C(=O)N1[C@@H](C)CC[C@H]1c1ncc(-c2ccc3c(c2)COc2cc4c(ccc5nc([C@@H]6CC[C@H](C)N6C(=O)[C@@H](NC(=O)OC)[C@H]6C[C@@H](C)O[C@@H](C)C6)[nH]c54)cc2-3)[nH]1)C(C)C` [Example AM, Methyl {(2S)-1-[(2S,5S)-2-(5-{2-[(2S,5S)-1-{(2S)-2-[(2R,6S)-2,6-dimethyltetrahydro-2H-pyran-4-yl]-2-[(methoxycarbonyl)amino]acetyl}-5-methylpyrrolidin-2-yl]-1,11-dihydroisochromeno[4′,3′:6,7]naphtho[1,2-d]imidazol-9-yl}-1H-imidazol-2-yl)-5-methylpyrrolidin-1-yl]-3-methyl-1-oxobutan-2-yl}carbamate]: the EC50 in data set [1] was determined as 0.014 nM; in data set [2], 0.023 nM; in data set [4], 11.6 nM; in data set [5], 4.65 nM; in data set [6], 8.06 nM. Besides, the bioavailability in data set [3] stood at 21.9%.
Turning to `COC(=O)N[C@H](C(=O)N1[C@@H](C)CC[C@H]1c1nc2ccc3cc4c(cc3c2[nH]1)OCc1cc(-c2cnc([C@@H]3CC[C@H](C)N3C(=O)[C@@H](NC(=O)OC)[C@H]3C[C@@H](C)O[C@@H](C)C3)[nH]2)ccc1-4)C(C)C` [Example AO, Methyl {(2S)-1-[(2S,5S)-2-(9-{2-[(2S,5S)-1-{(2S)-2-[(2R,6S)-2,6-dimethyltetrahydro-2H-pyran-4-yl]-2-[(methoxycarbonyl)amino]acetyl}-5-methylpyrrolidin-2-yl]-1H-imidazol-5-yl}-1,11-dihydroisochromeno[4′,3′:6,7]naphtho[1,2-d]imidazol-2-yl)-5-methylpyrrolidin-1-yl]-3-methyl-1-oxobutan-2-yl}carbamate], the EC50 is 0.015 nM in data set [1]; 0.045 nM in data set [2]; 17.5 nM in data set [4]; 9.03 nM in data set [5]; 9.06 nM in data set [6]. Moreover, the bioavailability in data set [3] was found to be 50.3%.
With `COC(=O)N[C@H](C(=O)N1[C@@H](C)CC[C@H]1c1nc2ccc3cc4c(cc3c2[nH]1)OCc1cc(-c2cnc([C@@H]3CC[C@H](C)N3C(=O)[C@@H](NC(=O)OC)C3C[C@@H](C)O[C@H](C)C3)[nH]2)ccc1-4)C(C)C` (some centres unmarked) [Example AS], the EC50 in data set [1] turned out to be 0.045 nM; in data set [2] it was 0.064 nM; in data set [4] it was 2.03 nM; in data set [5] it was 0.325 nM; in data set [6], 0.732 nM. Also, the bioavailability in data set [3] turned out to be 17.4%.
Consider `COC(=O)N[C@H](C(=O)N1[C@@H](C)CC[C@H]1c1ncc(-c2ccc3c(c2)COc2cc4c(ccc5nc([C@@H]6CC[C@H](C)N6C(=O)[C@@H](NC(=O)OC)C6C[C@@H](C)O[C@H](C)C6)[nH]c54)cc2-3)[nH]1)C1C[C@@H](C)O[C@H](C)C1` (stereo partly drawn) [Example AU, Methyl {(1S)-1-[(2R,6R)-2,6-dimethyltetrahydro-2H-pyran-4-yl]-2-[(2S,5S)-2-(5-{2-[(2S,5S)-1-{(2S)-2-[(2R,6R)-2,6-dimethyltetrahydro-2H-pyran-4-yl]-2-[(methoxycarbonyl)amino]acetyl}-5-methylpyrrolidin-2-yl]-1,11-dihydroisochromeno[4′,3′:6,7]naphtho[1,2-d]imidazol-9-yl}-1H-imidazol-2-yl)-5-methylpyrrolidin-1-yl]-2-oxoethyl}carbamate], for which the EC50 in data set [1] turned out to be 0.039 nM; in data set [2], 0.023 nM; in data set [4], 0.059 nM; in data set [5], 0.089 nM; in data set [6] it was 0.13 nM. Further, the bioavailability in data set [3] came to 16.4%.
For `COC[C@H]1C[C@@H](c2ncc(-c3ccc4c(c3)COc3cc5c(ccc6nc([C@@H]7CC[C@H](C)N7C(=O)[C@@H](NC(=O)OC)C7C[C@@H](C)O[C@H](C)C7)[nH]c65)cc3-4)[nH]2)N(C(=O)[C@@H](NC(=O)OC)C2C[C@@H](C)O[C@H](C)C2)C1` (stereo partly drawn) [Example BH, Methyl {(1S)-1-[(2R,6R)-2,6-dimethyltetrahydro-2H-pyran-4-yl]-2-[(2S,5S)-2-(9-{2-[(2S,4S)-1-{(2S)-2-[(2R,6R)-2,6-dimethyltetrahydro-2H-pyran-4-yl]-2-[(methoxycarbonyl)amino]acetyl}-4-(methoxymethyl)pyrrolidin-2-yl]-1H-imidazol-5-yl}-1,11-dihydroisochromeno[4′,3′:6,7]naphtho[1,2-d]imidazol-2-yl)-5-methylpyrrolidin-1-yl]-2-oxoethyl}carbamate], the EC50 in data set [1] amounted to 0.118 nM; in data set [2], 0.027 nM; in data set [5], 0.082 nM; in data set [6] it was 0.612 nM. In addition, the bioavailability in data set [3] was 2.7%.

For the origin of these results see US20160362416A1, “ANTIVIRAL COMPOUNDS” (Gilead Sciences, Inc., priority 2012, published 2016).
